{"source": "patent US20200338153A1", "about": "“ANAEROBIC ANTIOXIDANT COMPOSITION” (priority 2019, published 2020)", "origin": "cited, not measured here", "conditions": "in vivo", "data": [{"smiles": "CC(=O)N[C@@H](CS)C(=O)O", "note": "[NAC, N-acetylcysteine]", "values": [{"measurement": "fraction renally excreted by the body", "result": 30, "unit": "%"}]}]}
